Data published in patent US8236762B2, “Peptide-cytotoxic conjugates” (IPSEN Pharma S.A.S., priority 2006, dated 2012).
pKi: −log10 of the molar value. Numbered stars: 1 amine (or outer) side, 2 acyl side, 3 side chain; on linkers, the order of the positions; unused ones are H or OH. Bridge positions count the residues as written; N and C are the ends. Square brackets hold non-standard residues; d marks the D form. Peptide text beside a SMILES is read from it. * marks the point of attachment. Pipz(1-CH2CO,4-CH2CH2NH) = O=C(CN1CCN(CCN[*:1])CC1)[*:2]; X1 = CC[C@@]1(O*)C(=O)OCc2c1cc1n(c2=O)Cc2cc3ccccc3nc2-1; Tyr(3-I) = N[C@@H](Cc1ccc(O)c(I)c1)C(=O)O; Glutaryl = O=C(CCCC(=O)[*:2])[*:1]; Suc = O=C(CCC(=O)[*:2])[*:1]; Nle = CCCC[C@H](N)C(=O)O; Abu = CC[C@H](N)C(=O)O; AEEA = NCCOCCOCC(=O)O; Ava = NCCCCC(=O)O; GABA = NCCCC(=O)O; βAla = NCCC(=O)O

Legend:
hSSTR-5 = molecular target: T1, hSSTR-5 (Homo sapiens, UniProt P35346); assay: Somatostatin receptor radioligand binding, hSSTR-5 (CHO-K1 membranes); conditions: read-out: Ki hSSTR5 ± (SEM)
T1 construct: expressed in transfected cells; host or cells: CHO-K1
Description: (§2) For the hSSTR-1, hSSTR-3, and hSSTR-4 assays, aliquots of the membrane preparations were incubated for 90 minutes at 25° C. with 0.05 nM [^125I-Tyr11]SRIF-14 in 50 mM HEPES (pH 7.4) buffer containing 0.2% BSA and 5 mM MgCl2. The final assay volume was 0.3 ml. For the hSSTR-2 and hSSTR-5 assays, [^125I]-[4-(2-hydroxyethyl)]-1-piperazinylacetyl-D-Phe-c(Cys-Tyr-D-Trp-Lys-Abu-Cys)-Thr-NH2 (0.05 nM) and [^125I]-D-Phe-c(Cys-Tyr-D-Trp-Lys-Val-Cys)-Thr-NH2 were employed as the radioligands, respectively.

hSSTR-1 = molecular target: T2, hSSTR-1 (Homo sapiens, UniProt P30872); assay: Somatostatin receptor radioligand binding, hSSTR-1 (CHO-K1 membranes); conditions: read-out: Ki hSSTR1 ± (SEM)
T2 construct: expressed in transfected cells; host or cells: CHO-K1
Description: Membranes for in vitro receptor binding assays were obtained by homogenizing (Polytron setting 6, 15 sec) CHO-K1 cells expressing human somatostatin receptor subtypes hSSTR-1, hSSTR-2, hSSTR-3, hSSTR-4 or hSSTR-5 in ice-cold 50 mM Tris-HCl. The homogenized cells were centrifuged twice at 39,000 g for 10 minutes with an intermediate resuspension in fresh buffer. The final pellets were resuspended in 10 mM Tris-HCl to prepare the cell membrane homogenate for use in the binding assay.
The final assay volume was 0.3 ml.
The cell membrane homogenate was incubated with the radioligands for 90 minutes at 25° C. The incubations were terminated by rapid filtration through GF/C filters pre-soaked in 0.3% polyethylenimine using a Brandel® filtration manifold (Gaithersberg, Md., U.S.A.). Each tube and filter was washed three times with 5-ml aliquots of ice-cold buffer. Specific binding was defined as the total radioligand bound minus that bound in the presence of 1000 nM SRIF-14 (for hSSTR-1, hSSTR-3, hSSTR-4 or hSSTR-5), or 1000 nM DPhe-c(Cys-Tyr-D-Trp-Lys-Abu-Cys)-Thr-NH2 for hSSTR-2.

[1] = Half-life determination in human plasma (LC-MS); assay type: in vitro ADME; conditions: 37° C.
Description: (§1) Samples containing approximately 50 μg/ml up to and including approximately 500 μg/ml of test compound according to Formula IA or IB or II was added to 450 μl human or mouse plasma, vortexed briefly and incubated at 37° C. At various time intervals, e.g., 0, 0.5, 1, 2, 4, 6, 8, 24, 36 and 48 hours, 50 μl of the compound-plasma mixture was added to 150 μl acetonitrile in a microcentrifuge tube. The mixture was vortexed, centrifuged for 5 minutes at 10K RPM, and 135 μl of supernatant was transferred to an injection vial. The recovered supernatant was analyzed by using a liquid chromatography-mass spectrophotometer system (LC-MS) consisting of a Finnigan Deca XP® mass spectrometer with an ESI probe at the positive ion mode. HPLC separation was carried out on a Luna 3μ C8 (2)® 3×50 mm column with a gradient decreasing from 100% A to 80% B for 10 minutes at a flow rate of 0.25 ml/min. Buffer A was 0.1% acetic acid in water and buffer B was 0.1% acetic acid acetonitrile.

[2] = Half-life determination in mouse plasma (LC-MS); assay type: in vitro ADME; conditions: 37° C.
Description: as §1

bombesin/GRP receptor = molecular target: T3, bombesin/GRP receptor (Rattus norvegicus, UniProt P52500); assay: Bombesin/GRP radioligand binding (AR42J rat pancreas cell membranes); conditions: read-out: Ki bombesin receptor ± (SEM)
T3 construct: AR42J rat pancreas cells expressing the native bombesin/GRP receptor; endogenous in cells; host or cells: AR42J rat pancreas cells
Description: Membranes were prepared for radioligand binding studies by homogenization of AR42J rat pancreas cells expressing the native bombesin/GRP receptor in 20 ml of ice-cold 50 mM Tris-HCl with a Brinkman Polytron® (Westbury, N.Y., U.S.A.) at settings of 6, 15 seconds. The homogenates were washed twice by centrifugation (39,000 g/10 minutes) and the final pellets were resuspended in 50 mM Tris-HCl containing 2.5 mM MgCl2 and 0.1% BSA. […] The filters were then washed three times with 5-ml aliquots of ice-cold 50 mM Tris-HCl. The bound radioactivity trapped on the filters was counted by gamma spectrometry (Wallac LKB®, Gaithersburg, Md., U.S.A.).

hSSTR-3 = molecular target: T4, hSSTR-3 (Homo sapiens, UniProt P32745); assay: Somatostatin receptor radioligand binding, hSSTR-3 (CHO-K1 membranes); conditions: read-out: Ki hSSTR3 ± (SEM)
T4 construct: expressed in transfected cells; host or cells: CHO-K1
Description: as §2

hSSTR-2 = molecular target: T5, hSSTR-2 (Homo sapiens, UniProt P30874); assay: Somatostatin receptor radioligand binding, hSSTR-2 (CHO-K1 membranes); conditions: read-out: Ki hSSTR2 ± (SEM)
T5 construct: expressed in transfected cells; host or cells: CHO-K1
Description: as §2

hSSTR-4 = molecular target: T6, hSSTR-4 (Homo sapiens, UniProt P31391); assay: Somatostatin receptor radioligand binding, hSSTR-4 (CHO-K1 membranes); conditions: read-out: Ki hSSTR4 ± (SEM)
T6 construct: expressed in transfected cells; host or cells: CHO-K1
T6 sequence (P31391 whole entry): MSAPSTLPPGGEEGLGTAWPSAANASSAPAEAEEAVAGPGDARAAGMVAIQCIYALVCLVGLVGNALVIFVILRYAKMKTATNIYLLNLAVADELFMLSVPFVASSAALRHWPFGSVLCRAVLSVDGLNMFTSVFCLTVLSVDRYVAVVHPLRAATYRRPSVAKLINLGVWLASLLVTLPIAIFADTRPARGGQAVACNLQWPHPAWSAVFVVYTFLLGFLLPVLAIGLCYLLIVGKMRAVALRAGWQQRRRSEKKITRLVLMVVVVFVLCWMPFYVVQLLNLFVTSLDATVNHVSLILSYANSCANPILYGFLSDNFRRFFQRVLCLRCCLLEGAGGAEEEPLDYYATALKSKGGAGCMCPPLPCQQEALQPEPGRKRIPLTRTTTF
Description: as §2

T3 sequence (P52500 whole entry): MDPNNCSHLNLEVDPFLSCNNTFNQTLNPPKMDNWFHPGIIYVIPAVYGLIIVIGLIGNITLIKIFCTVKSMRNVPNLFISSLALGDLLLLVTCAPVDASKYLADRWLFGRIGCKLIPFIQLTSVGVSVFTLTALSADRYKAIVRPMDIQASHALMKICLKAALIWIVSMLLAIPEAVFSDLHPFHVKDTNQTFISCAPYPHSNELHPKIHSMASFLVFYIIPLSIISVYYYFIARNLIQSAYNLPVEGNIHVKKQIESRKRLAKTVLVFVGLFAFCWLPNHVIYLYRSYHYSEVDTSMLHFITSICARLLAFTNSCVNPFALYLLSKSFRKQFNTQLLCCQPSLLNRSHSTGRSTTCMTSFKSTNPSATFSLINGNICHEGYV
T2 sequence (P30872 whole entry): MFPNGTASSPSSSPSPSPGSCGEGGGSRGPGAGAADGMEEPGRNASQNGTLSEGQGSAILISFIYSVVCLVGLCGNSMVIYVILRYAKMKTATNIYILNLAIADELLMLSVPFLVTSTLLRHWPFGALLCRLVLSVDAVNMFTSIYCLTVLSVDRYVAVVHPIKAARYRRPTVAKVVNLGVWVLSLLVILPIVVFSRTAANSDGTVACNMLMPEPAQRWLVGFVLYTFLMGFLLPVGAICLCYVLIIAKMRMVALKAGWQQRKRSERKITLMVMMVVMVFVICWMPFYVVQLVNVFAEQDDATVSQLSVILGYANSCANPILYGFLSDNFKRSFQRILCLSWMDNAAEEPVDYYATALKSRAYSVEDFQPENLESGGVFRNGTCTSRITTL
T1 sequence (P35346 whole entry): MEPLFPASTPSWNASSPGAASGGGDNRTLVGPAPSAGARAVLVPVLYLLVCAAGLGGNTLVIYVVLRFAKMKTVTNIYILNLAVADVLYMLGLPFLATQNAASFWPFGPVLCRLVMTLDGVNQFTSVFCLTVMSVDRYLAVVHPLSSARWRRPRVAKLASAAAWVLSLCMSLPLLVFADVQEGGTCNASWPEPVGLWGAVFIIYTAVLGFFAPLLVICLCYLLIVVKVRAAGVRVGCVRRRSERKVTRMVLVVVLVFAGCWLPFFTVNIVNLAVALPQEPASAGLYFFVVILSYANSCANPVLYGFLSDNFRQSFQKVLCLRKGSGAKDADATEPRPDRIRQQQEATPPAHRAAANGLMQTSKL
T5 sequence (P30874 whole entry): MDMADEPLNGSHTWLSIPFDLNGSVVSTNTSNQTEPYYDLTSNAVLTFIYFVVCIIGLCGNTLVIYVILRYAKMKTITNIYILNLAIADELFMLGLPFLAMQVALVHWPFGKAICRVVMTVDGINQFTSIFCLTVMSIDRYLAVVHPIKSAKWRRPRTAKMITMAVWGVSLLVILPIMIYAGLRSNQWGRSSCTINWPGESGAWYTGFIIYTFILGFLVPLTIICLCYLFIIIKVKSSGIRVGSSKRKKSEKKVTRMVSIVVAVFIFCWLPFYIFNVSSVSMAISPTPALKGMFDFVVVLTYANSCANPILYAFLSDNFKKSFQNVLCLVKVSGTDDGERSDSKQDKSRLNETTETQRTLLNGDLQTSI
T4 sequence (P32745 whole entry): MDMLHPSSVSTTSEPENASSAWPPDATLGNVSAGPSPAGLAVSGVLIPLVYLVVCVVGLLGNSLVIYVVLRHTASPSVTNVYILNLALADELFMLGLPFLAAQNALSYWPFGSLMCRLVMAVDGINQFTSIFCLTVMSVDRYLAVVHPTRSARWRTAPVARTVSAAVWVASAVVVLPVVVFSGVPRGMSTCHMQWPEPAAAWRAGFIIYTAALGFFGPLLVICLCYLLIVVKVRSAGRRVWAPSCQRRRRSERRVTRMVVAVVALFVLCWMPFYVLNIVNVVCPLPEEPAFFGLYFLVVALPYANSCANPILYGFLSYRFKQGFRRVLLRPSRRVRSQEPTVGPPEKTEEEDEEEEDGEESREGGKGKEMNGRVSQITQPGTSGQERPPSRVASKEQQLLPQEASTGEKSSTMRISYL

## CC[C@@H]1NC(=O)[C@H](CCCCN)NC(=O)[C@@H](Cc2c[nH]c3ccccc23)NC(=O)[C@H](Cc2ccc(O)cc2)NC(=O)[C@@H](NC(=O)[C@@H](Cc2ccccc2)NC(=O)CN2CCN(CCNC(=O)COCCOCCNC(=O)COCCOCCNC(=O)COCCOCCNC(=O)COCCOCCNC(=O)CCC(=O)NCCCCCCCCC(=O)O[C@]3(CC)C(=O)OCc4c3cc3n(c4=O)Cc4cc5ccccc5nc4-3)CC2)CSSC[C@@H](C(=O)N[C@H](C(N)=O)[C@@H](C)O)NC1=O [Example 17, Camptothecin-rvAnc-Suc-(Doc)4-Aepa-D-Phe-cyclo(Cys-Tyr-D-Trp-Lys-Abu-Cys)-Thr-NH2]
hSSTR-5
  pKi: ≤ 6.00
hSSTR-1
  pKi: ≤ 6.00
[1]
  half-life: 28.6 h
[2]
  half-life: 15.6 h

## CCCC[C@H](NC(=O)[C@H](CC(C)C)NC(=O)[C@H](Cc1c[nH]cn1)NC(=O)CCNC(=O)[C@@H](NC(=O)[C@H](C)NC(=O)[C@H](Cc1c[nH]c2ccccc12)NC(=O)[C@H](CCC(N)=O)NC(=O)[C@H](CC(N)=O)NC(=O)CCCCNC(=O)CN1CCN(CCNC(=O)COCCOCCNC(=O)COCCOCCNC(=O)COCCOCCNC(=O)COCCOCCNC(=O)CCC(=O)NCC(=O)O[C@]2(CC)C(=O)OCc3c2cc2n(c3=O)Cc3cc4ccccc4nc3-2)CC1)C(C)C)C(N)=O [Example 24, Camptothecin-rvGly-Suc-(Doc)4-Aepa-Apn-Asn-Gln-Trp-Ala-Val-β-Ala-His-Leu-Nle-NH2] ({X1-Gly-Suc-AEEA-AEEA-AEEA-AEEA}-[Pipz(1-CH2CO,4-CH2CH2NH)][Ava]NQWAV[βAla]HL[Nle]-NH2)
bombesin/GRP receptor
  pKi: 8.39
[1]
  half-life: 4.6 h
[2]
  half-life: 2.6 h

## CC[C@@]1(OC(=O)CNC(=O)CCCC(=O)NCCOCCOCC(=O)NCCOCCOCC(=O)NCCOCCOCC(=O)NCCOCCOCC(=O)N[C@@H](CCCCN)C(=O)N[C@H](Cc2ccc(O)cc2)C(=O)N[C@H](Cc2ccc(O)cc2)C(=O)N[C@H]2CSSC[C@@H](C(N)=O)NC(=O)[C@H]([C@@H](C)O)NC(=O)[C@H](CCCCN)NC(=O)[C@@H](Cc3c[nH]c4ccccc34)NC(=O)[C@H](Cc3ccccc3)NC(=O)[C@H](Cc3ccccc3)NC2=O)C(=O)OCc2c1cc1n(c2=O)Cc2cc3ccccc3nc2-1 [Example 4, Camptothecin-rvGly-Glut-(Doc)4-Lys-D-Tyr-D-Tyr-c(Cys-Phe-Phe-D-Trp-Lys-Thr-Cys)-NH2] ({X1-Gly-Glutaryl-AEEA-AEEA-AEEA-AEEA}-K[dY][dY]CFF[dW]KTC-NH2; disulfide 4-10)
hSSTR-5
  pKi: 6.32
hSSTR-1
  pKi: ≤ 6.00
[1]
  half-life: 3.2 h
hSSTR-3
  pKi: ≤ 6.00
[2]
  half-life: 4.4 h
hSSTR-2
  pKi: 8.03
hSSTR-4
  pKi: ≤ 6.00

## CC[C@@H]1NC(=O)[C@H](CCCCN)NC(=O)[C@@H](Cc2c[nH]c3ccccc23)NC(=O)[C@H](Cc2ccc(O)cc2)NC(=O)[C@@H](NC(=O)[C@@H](Cc2ccccc2)NC(=O)CN2CCN(CCNC(=O)COCCOCCNC(=O)COCCOCCNC(=O)COCCOCCNC(=O)COCCOCCNC(=O)CCC(=O)NCCCCCCC(=O)O[C@]3(CC)C(=O)OCc4c3cc3n(c4=O)Cc4cc5ccccc5nc4-3)CC2)CSSC[C@@H](C(=O)N[C@H](C(N)=O)[C@@H](C)O)NC1=O [Example 18, Camptothecin-rvAhp-Suc-(Doc)4-Aepa-D-Phe-cyclo(Cys-Tyr-D-Trp-Lys-Abu-Cys)-Thr-NH2]
hSSTR-5
  pKi: ≤ 6.00
hSSTR-1
  pKi: ≤ 6.00
[1]
  half-life: 8 h
[2]
  half-life: 16.2 h

## CC[C@@H]1NC(=O)[C@H](CCCCN)NC(=O)[C@@H](Cc2c[nH]c3ccccc23)NC(=O)[C@H](Cc2ccc(O)c(I)c2)NC(=O)[C@@H](NC(=O)[C@@H](Cc2ccc(O)cc2)NC(=O)[C@@H](Cc2ccc(O)cc2)NC(=O)[C@H](CCCCN)NC(=O)COCCOCCNC(=O)COCCOCCNC(=O)COCCOCCNC(=O)COCCOCCNC(=O)COCCOCCNC(=O)COCCOCCNC(=O)CCCC(=O)NCC(=O)O[C@]2(CC)C(=O)OCc3c2cc2n(c3=O)Cc3cc4ccccc4nc3-2)CSSC[C@@H](C(=O)N[C@H](C(N)=O)[C@@H](C)O)NC1=O [Example 2, Camptothecin-rvGly-Glut-(Doc)6-Lys-D-Tyr-D-Tyr-c(Cys-3-(I)Tyr-D-Trp-Lys-Abu-Cys)-Thr-NH2] ({X1-Gly-Glutaryl-AEEA-AEEA-AEEA-AEEA-AEEA-AEEA}-K[dY][dY]C[Tyr(3-I)][dW]K[Abu]CT-NH2; disulfide 4-9)
hSSTR-5
  pKi: 8.52
hSSTR-1
  pKi: ≤ 6.00
[1]
  half-life: 2.2 h
hSSTR-3
  pKi: 6.90
[2]
  half-life: 4.6 h
hSSTR-2
  pKi: 9.44
hSSTR-4
  pKi: ≤ 6.00

## CCCC[C@H](NC(=O)[C@H](CC(C)C)NC(=O)[C@H](Cc1c[nH]cn1)NC(=O)CCNC(=O)[C@@H](NC(=O)[C@H](C)NC(=O)[C@H](Cc1c[nH]c2ccccc12)NC(=O)[C@H](CCC(N)=O)NC(=O)CCCCCNC(=O)CN1CCN(CCNC(=O)COCCOCCNC(=O)COCCOCCNC(=O)COCCOCCNC(=O)COCCOCCNC(=O)CCC(=O)NCC(=O)O[C@]2(CC)C(=O)OCc3c2cc2n(c3=O)Cc3cc4ccccc4nc3-2)CC1)C(C)C)C(N)=O [Example 21, Camptothecin-rvGly-Suc-(Doc)4-Aepa-Ahx-Gln-Trp-Ala-Val-β-Ala-His-Leu-Nle-NH2]
bombesin/GRP receptor
  pKi: 8.72
[1]
  half-life: 3.2 h
[2]
  half-life: 5.4 h

## CCCC[C@H](NC(=O)[C@H](CC(C)C)NC(=O)[C@H](Cc1c[nH]cn1)NC(=O)CCNC(=O)[C@@H](NC(=O)[C@H](C)NC(=O)[C@H](Cc1c[nH]c2ccccc12)NC(=O)[C@H](CCC(N)=O)NC(=O)[C@H](CCCC)NC(=O)CN1CCN(CCNC(=O)COCCOCCNC(=O)COCCOCCNC(=O)COCCOCCNC(=O)COCCOCCNC(=O)CCC(=O)NCC(=O)O[C@]2(CC)C(=O)OCc3c2cc2n(c3=O)Cc3cc4ccccc4nc3-2)CC1)C(C)C)C(N)=O [Example 20, Camptothecin-rvGly-Suc-(Doc)4-Aepa-Nle-Gln-Trp-Ala-Val-β-Ala-His-Leu-Nle-NH2] ({X1-Gly-Suc-AEEA-AEEA-AEEA-AEEA}-[Pipz(1-CH2CO,4-CH2CH2NH)][Nle]QWAV[βAla]HL[Nle]-NH2)
bombesin/GRP receptor
  pKi: 8.34
[1]
  half-life: 4.8 h
[2]
  half-life: 2.8 h

## CCCC[C@H](NC(=O)[C@H](CC(C)C)NC(=O)[C@H](Cc1c[nH]cn1)NC(=O)CCNC(=O)[C@@H](NC(=O)[C@H](C)NC(=O)[C@H](Cc1c[nH]c2ccccc12)NC(=O)[C@H](CCC(N)=O)NC(=O)[C@H](CC(N)=O)NC(=O)CCCNC(=O)CN1CCN(CCNC(=O)COCCOCCNC(=O)COCCOCCNC(=O)COCCOCCNC(=O)COCCOCCNC(=O)CCC(=O)NCC(=O)O[C@]2(CC)C(=O)OCc3c2cc2n(c3=O)Cc3cc4ccccc4nc3-2)CC1)C(C)C)C(N)=O [Example 23, Camptothecin-rvGly-Suc-(Doc)4-Aepa-Gaba-Asn-Gln-Trp-Ala-Val-β-Ala-His-Leu-Nle-NH2] ({X1-Gly-Suc-AEEA-AEEA-AEEA-AEEA}-[Pipz(1-CH2CO,4-CH2CH2NH)][GABA]NQWAV[βAla]HL[Nle]-NH2)
bombesin/GRP receptor
  pKi: 8.12
[1]
  half-life: 4.2 h
[2]
  half-life: 2.9 h
